Reference: patent publication US8710233B2 (Gruenenthal GmbH, priority 2005, dated 2014)
Where two headings read alike, the source gives them in different places.

What was measured:
[1] = tested on: formaldehyde induced nociceptive behaviour; assay: Formaldehyde test in mice, second (late) phase; type: in vivo, mouse; conditions: mouse, read-out: inhibition formaldehyde test (n = 10); for inhibition in vivo at 1 mg/kg: 1 mg/kg body weight po
VR1/TRPV1 receptor = VR1/TRPV1 receptor (Homo sapiens, UniProt Q8NER1); assay: IC50 (human) after pH stimulus; type: cell-based; conditions: for IC50: table 4
[2] = tested on: capsaicin induced hypothermie; assay: Hypothermie assay in the mouse (capsaicin induced hypothermie); type: in vivo; conditions: 0.3 mg/kg body weight po; mouse; read-out: inhibition hypothermie (n = 5)
Method: V. Hypothermie Assay an der Maus
Male NMRI mice (weight 25-35 gram, supplier IFFA CREDO, Bruxelles, Belgium) are used in the hypothermie assay. The animals are kept under standardized conditions: light/darkness interval (6:00 to 18:00 light; 18:00 to 6:00 Uhr darkness), room temperature 19-22° C., relative humidity 35-70%, 15 times per hour change of compartment air, airflow <0.2 m/sec. The animals were fed on a standardized diet (ssniff diet, ssniff Spezialdiäten GmbH, Soest, Germany) and tap water. Water and diet were detracted during the experiment. All animals were used once in the experiment. The animals were allowed to adapt to the experimental conditions for at least 5 days.
The acute application of capsaicin (VR-1 agonist) leads to a decrease of the core body temperature in rat and mice via stimulation of heat sensors. Only compounds which act as specific VR-1-receptor antagonists can antagonize the capsaicin induced hypothermie. In contrast, morphine induced hypothermie is not antagonized by VR-1 antagonists. Thus, this experiment is suitable for the determination of compounds that act as VR1-antagonists via their effect on the core body temperature.
For the determination of the core body temperature a digital thermometer was used (Thermalert TH-5, physitemp, Clifton N.J., USA). The measuring head was inserted into the rectum.
The individual basis value is determined by measuring the body temperature twice in an interval of about half an hour. […] […] The test compound is given 10 min (i.v.) or 15 min (p.o.), respectively, before application of capsaicin. The body temperature is determined 7.5/15 and 30 min after application of capsaicin (i.v.+i.p.) or 15/30/60/90/120 min after application of capsaicin (p.o.+i.p.), respectively. In addition, another group of mice is only given the test compound or a vehicle control.
The measuring points are given as average values±S.E.M. of the absolute values. The antagonistic effect is given in percent of inhibition of capsaicin induced hypothermie.

[3] = molecular target: T1, vanilloid receptor 1 (VR1/TRPV1) of the rat species (Rattus norvegicus, UniProt O35433); assay: FLIPR Ca2+ influx assay on rat dorsal root ganglia cells (pharmacological method I); type: cell-based; conditions: table 4, capsaicin
T1 construct: The spinal column is removed from decapitated rats; from tissue; host or cells: primary cells dissociated from rat dorsal root ganglia
In short: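 Primary rat dorsal root ganglion cells loaded with 2 μM Fluo-4, Ca2+ influx read on FLIPR as peak fluorescence. Triplicates, at least 3 independent experiments.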

vanilloid receptor (VR1) = molecular target: T2, vanilloid receptor (VR1) (Homo sapiens, UniProt Q8NER1); assay: FLIPR Ca2+ influx assay on CHO K1 cells transfected with the VR1 gene (pharmacological method II); type: cell-based; conditions: table 4; capsaicin; read-out: Ki (human) Cap.
T2 construct: expressed in transfected cells; host or cells: CHO K1 cells (ECACC), stably transfected
T2 sequence (Q8NER1 whole entry): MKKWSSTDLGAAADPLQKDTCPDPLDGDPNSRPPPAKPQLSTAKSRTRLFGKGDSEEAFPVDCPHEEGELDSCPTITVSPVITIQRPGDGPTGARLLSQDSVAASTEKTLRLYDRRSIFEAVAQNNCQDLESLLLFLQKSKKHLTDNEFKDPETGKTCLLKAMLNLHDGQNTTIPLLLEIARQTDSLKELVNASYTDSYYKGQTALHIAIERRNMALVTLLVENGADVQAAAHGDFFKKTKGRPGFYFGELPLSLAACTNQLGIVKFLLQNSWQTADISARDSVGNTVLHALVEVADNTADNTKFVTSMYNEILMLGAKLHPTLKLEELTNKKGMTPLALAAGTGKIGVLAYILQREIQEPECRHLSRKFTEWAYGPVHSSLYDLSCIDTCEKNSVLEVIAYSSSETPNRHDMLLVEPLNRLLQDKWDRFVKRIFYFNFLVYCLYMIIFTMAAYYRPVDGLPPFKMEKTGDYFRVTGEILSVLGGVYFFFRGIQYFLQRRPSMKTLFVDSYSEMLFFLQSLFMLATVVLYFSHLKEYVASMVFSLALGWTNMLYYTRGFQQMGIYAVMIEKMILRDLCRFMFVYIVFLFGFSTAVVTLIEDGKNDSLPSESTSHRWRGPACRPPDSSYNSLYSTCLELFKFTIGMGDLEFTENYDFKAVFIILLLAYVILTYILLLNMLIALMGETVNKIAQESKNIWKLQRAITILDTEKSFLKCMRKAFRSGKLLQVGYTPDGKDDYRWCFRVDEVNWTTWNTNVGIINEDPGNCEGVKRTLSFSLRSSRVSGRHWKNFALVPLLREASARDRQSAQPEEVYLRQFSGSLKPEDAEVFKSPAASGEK

VR1/TRPV1 receptor, sequence (Q8NER1 whole entry): as above
T1 sequence (O35433 whole entry): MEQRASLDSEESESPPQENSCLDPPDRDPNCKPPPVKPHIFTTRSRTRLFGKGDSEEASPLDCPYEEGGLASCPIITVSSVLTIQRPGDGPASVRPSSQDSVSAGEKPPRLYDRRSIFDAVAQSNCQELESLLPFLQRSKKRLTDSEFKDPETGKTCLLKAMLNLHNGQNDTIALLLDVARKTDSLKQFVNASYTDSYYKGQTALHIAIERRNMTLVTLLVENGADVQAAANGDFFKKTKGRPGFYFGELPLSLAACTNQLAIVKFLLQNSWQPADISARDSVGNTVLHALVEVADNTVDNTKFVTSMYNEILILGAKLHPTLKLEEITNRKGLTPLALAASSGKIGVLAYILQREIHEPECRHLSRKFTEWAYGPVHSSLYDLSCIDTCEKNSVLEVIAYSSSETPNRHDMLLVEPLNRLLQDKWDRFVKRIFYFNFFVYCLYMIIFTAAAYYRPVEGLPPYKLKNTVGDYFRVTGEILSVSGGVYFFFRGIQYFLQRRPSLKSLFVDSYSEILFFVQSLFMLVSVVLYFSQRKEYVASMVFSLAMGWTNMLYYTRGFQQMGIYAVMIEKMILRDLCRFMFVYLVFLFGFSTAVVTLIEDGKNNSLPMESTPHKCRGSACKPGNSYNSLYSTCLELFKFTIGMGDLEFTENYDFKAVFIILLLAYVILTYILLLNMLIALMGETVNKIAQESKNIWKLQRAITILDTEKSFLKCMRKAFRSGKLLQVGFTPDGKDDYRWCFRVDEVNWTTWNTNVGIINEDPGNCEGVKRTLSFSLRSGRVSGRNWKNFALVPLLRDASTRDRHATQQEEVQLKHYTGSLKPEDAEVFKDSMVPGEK

Structure (SMILES) | inhibition in vivo at 1 mg/kg [1] | IC50 (VR1/TRPV1 receptor) | inhibition in vivo at 0.3 mg/kg [2] | Ki ([3]; read-out: Ki (rat) Cap.) | Ki (vanilloid receptor (VR1)) | further results
CC(C(=O)NCc1ccc(C(F)(F)F)nc1NC1CCCCC1)c1ccc(NS(C)(=O)=O)c(F)c1 (stereo not drawn) [Compound 90] | 37% | – | – | – | – | –
CCCCOC1CCN(c2nc(C(F)(F)F)ccc2CNC(=O)C(C)c2ccc(NS(C)(=O)=O)c(F)c2)CC1 (stereo not drawn) [Compound 160] | 14% | – | – | – | – | –
CCCCN(C)c1nc(C(F)(F)F)ccc1CNC(=O)C(C)c1ccc(NS(C)(=O)=O)c(F)c1 (stereo not drawn) [Compound 167] | – | – | – | – | – | inhibition in vivo at 0.3 mg/kg ([1]; 0.3 mg/kg body weight po): 56%
CCC1CCC(Oc2nc(C(F)(F)F)ccc2CNC(=O)C(C)c2ccc(NS(C)(=O)=O)c(F)c2)CC1 (stereo not drawn) [Compound 171] | 46% | – | – | – | – | –
CC(C(=S)NCc1ccc(C(F)(F)F)nc1N1CCCC1)c1ccc(NS(C)(=O)=O)c(F)c1 (stereo not drawn) [Compound 129] | 3% | – | – | – | – | –
CC(C(=O)NCc1ccc(C(F)(F)F)nc1N1CCN(c2ccc(F)cc2)CC1)c1ccc(NS(C)(=O)=O)c(F)c1 (stereo not drawn) [Compound 179] | 22% | – | – | – | – | –
CC(C(=O)NCc1ccc(C(F)(F)F)nc1N1CCCC1)c1ccc(NS(C)(=O)=O)c(Br)c1 (stereo not drawn) [Compound 103] | 50% | – | – | – | – | –
CC(C(=O)NCc1ccc(C(F)(F)F)nc1OCCc1ccccc1)c1ccc(NS(C)(=O)=O)c(F)c1 (stereo not drawn) [Compound 178] | 28% | – | – | – | – | –
CC(C(=O)NCc1ccc(C(F)(F)F)nc1-c1ccc(C(C)(C)C)cc1)c1ccc(NS(C)(=O)=O)c(F)c1 (stereo not drawn) [Compound 117] | 41% | – | – | – | – | –
CC(C(=O)NCc1ccc(C(F)(F)Cl)nc1OCc1ccccn1)c1ccc(NS(C)(=O)=O)c(F)c1 (stereo not drawn) [Compound 182] | 8% | – | – | – | – | –
CC(C(=O)NCc1ccc(C(F)(F)F)nc1OCC1CC1C)c1ccc(NS(C)(=O)=O)c(F)c1 (stereo not drawn) [Example 124, 2-(3-fluoro-4-methylsulfonamido-phenyl)-N-[2-(2-methyl-cyclopropylmethoxy)-6-trifluoromethyl-pyridin-3-ylmethyl]-propionamide] | – | 5.1 nM | 39% | 0.4 nM | 0.3 nM | –
C[C@@H](C(=O)NCc1ccc(C(F)(F)F)cc1N1CCCCC1)c1ccc(NS(C)(=O)=O)c(F)c1 [Example 32, (R)-2-(3-fluoro-4-(methylsulfonamido)phenyl)-N-(2-(piperidin-1-yl)-4-(trifluoromethyl)benzyl)propanamide] | – | 135 nM | 55% | 2.6 nM | 1.7 nM | –
CC(C(=O)NCc1ccc(C(F)(F)F)nc1N1CCN(c2ncccc2Cl)CC1C)c1ccc(NS(C)(=O)=O)c(F)c1 (stereo not drawn) [Example 194, N-{2-[4-(3-chloro-pyridin-2-yl)-2-methyl-piperazin-1-yl]-6-trifluoromethyl-pyridin-3-ylmethyl}-2-(3-fluoro-4-methylsulfonamido-phenyl)-propionamide] | – | – | 14% | 3.8 nM | 4.1 nM | inhibition at 1 µM (VR1/TRPV1 receptor; @ 1 μM, ne = no effect, read-out: inhibition in percent, IC50 (human) after pH stimulus): 21%
CC(C(=O)NCc1ccc(C(F)(F)F)nc1-c1ccc(Cl)cc1)c1ccc(NS(C)(=O)=O)c(F)c1 (stereo not drawn) [Example 147, N-[2-(4-chloro-phenyl)-6-trifluoromethyl-pyridin-3-ylmethyl]-2-(3-fluoro-4-methylsulfonamido-phenyl)-propionamide] | – | 10.4 nM | 3% | 1 nM | 0.7 nM | –
CCCCSc1nc(C(F)(F)F)ccc1CNC(=O)C(C)c1ccc(NS(C)(=O)=O)c(F)c1 (stereo not drawn) [Example 122] | – | 40.4 nM | 33% | 0.6 nM | 0.7 nM | –
CC(C(=O)NCc1ccc(C(F)(F)F)nc1N1Cc2ccccc2C1)c1ccc(NS(C)(=O)=O)c(F)c1 (stereo not drawn) [Example 188, N-[2-(1,3-dihydro-isoindol-2-yl)-6-trifluoromethyl-pyridin-3-ylmethyl]-2-(3-fluoro-4-methylsulfonamido-phenyl)-propionamide] | – | 192 nM | 0% | 5 nM | 5 nM | –
CC(C(=O)NCc1ccc(C(F)(F)F)nc1N1CC=CCC1)c1ccc(NS(C)(=O)=O)c(F)c1 (stereo not drawn) [Example 139, 2-(3-fluoro-4-methylsulfonamido-phenyl)-N-(6′-trifluoromethyl-3,6-dihydro-2H-[1,2′]bipyridinyl-3′-ylmethyl)-propionamide] | – | 12.1 nM | 43% | 0.9 nM | 0.3 nM | –
CC(C(=O)NCc1ccc(C(F)(F)F)cc1N1CCN(c2ccccc2)CC1)c1ccc(NS(C)(=O)=O)c(F)c1 (stereo not drawn) [Example 216] | – | 64.7 nM | 4% | 0.5 nM | 2 nM | –
CC(C(=O)NCc1ccc(C(F)(F)F)nc1-c1ccc(F)cc1)c1ccc(NS(C)(=O)=O)c(F)c1 (stereo not drawn) [Example 89] | – | 131 nM | 1% | 1.2 nM | 0.4 nM | –
CC(C(=O)NCc1ccc(C(F)(F)F)nc1Nc1ccccc1)c1ccc(NS(C)(=O)=O)c(F)c1 (stereo not drawn) [Example 110, 2-(3-fluoro-4-methylsulfonamido-phenyl)-N-(2-phenylamino-6-trifluoromethyl-pyridin-3-ylmethyl)-propionamide] | – | 1400 nM | 13% | 63.1 nM | 59.6 nM | –
CCCN(CCC)c1nc(C(F)(F)F)ccc1CNC(=O)C(C)c1ccc(NS(C)(=O)=O)c(F)c1 (stereo not drawn) [Example 16, N-((2-(dipropylamino)-6-(trifluoromethyl)pyridin-3-yl)methyl)-2-(3-fluoro-4-(methylsulfonamido)phenyl)propanamide] | – | 14.7 nM | 12% | 0.8 nM | 0.2 nM | –
CC(C(=O)NCc1ccc(C(C)(C)C)cc1OC1CCCCC1)c1ccc(NS(C)(=O)=O)c(F)c1 (stereo not drawn) [Example 154, N-(4-tert-butyl-2-cyclohexyloxy-benzyl)-2-(3-fluoro-4-methylsulfonamido-phenyl)-propionamide] | – | 534 nM | 12% | 1.7 nM | 8.1 nM | –
CCCCCOc1nc(C(F)(F)F)ccc1CNC(=O)C(C)c1ccc(NS(C)(=O)=O)c(F)c1 (stereo not drawn) [Example 225, 2-(3-fluoro-4-methylsulfonamido-phenyl)-N-(2-pentyloxy-6-trifluoromethyl-pyridin-3-ylmethyl)-propionamide] | – | 27.3 nM | 20% | 0.5 nM | 0.7 nM | –
COc1cccc(COc2nc(C(F)(F)F)ccc2CNC(=O)C(C)c2ccc(NS(C)(=O)=O)c(F)c2)c1 (stereo not drawn) [Example 107, 2-(3-fluoro-4-methylsulfonamido-phenyl)-N-[2-(3-methoxy-benzyloxy)-6-trifluoromethyl-pyridin-3-ylmethyl]-propionamide] | – | 43.7 nM | 21% | – | 0.8 nM | Ki ([3]; Ki (rat) Cap.): 1 nM
COc1ccc(N2CCN(c3nc(C(F)(F)F)ccc3CNC(=O)C(C)c3ccc(NS(C)(=O)=O)c(F)c3)CC2)cc1 (stereo not drawn) [Example 221, 2-(3-fluoro-4-methylsulfonamido-phenyl)-N-{2-[4-(4-methoxy-phenyl)-piperazin-1-yl]-6-trifluoromethyl-pyridin-3-ylmethyl}-propionamide] | – | 44.5 nM | 18% | 1.9 nM | 2.5 nM | –
C[C@@H](C(=O)NCc1ccc(C(F)(F)F)nc1-c1ccc(F)c(Cl)c1)c1ccc(NS(C)(=O)=O)c(F)c1 [Example 121, (R)-N-[2-(3-chloro-4-fluoro-phenyl)-6-trifluoromethyl-pyridin-3-ylmethyl]-2-(3-fluoro-4-methylsulfonamido-phenyl)-propionamide] | – | – | 12% | 5.8 nM | 13.2 nM | inhibition at 10 µM (VR1/TRPV1 receptor; @ 10 μM, read-out: inhibition in percent, IC50 (human) after pH stimulus): 56%
CC(C)CCOc1nc(C(F)(F)F)ccc1CNC(=O)C(C)c1ccc(NS(C)(=O)=O)c(F)c1 (stereo not drawn) [Example 123, 2-(3-fluoro-4-methylsulfonamido-phenyl)-N-[2-(3-methyl-butoxy)-6-trifluoromethyl-pyridin-3-ylmethyl]-propionamide] | – | 15.1 nM | 47% | 0.6 nM | 0.8 nM | –
